Data set [1] concerns the target T1, Fatty-acid amide hydrolase 1 (Rattus norvegicus, UniProt P97612).
T1 sequence (P97612 whole entry): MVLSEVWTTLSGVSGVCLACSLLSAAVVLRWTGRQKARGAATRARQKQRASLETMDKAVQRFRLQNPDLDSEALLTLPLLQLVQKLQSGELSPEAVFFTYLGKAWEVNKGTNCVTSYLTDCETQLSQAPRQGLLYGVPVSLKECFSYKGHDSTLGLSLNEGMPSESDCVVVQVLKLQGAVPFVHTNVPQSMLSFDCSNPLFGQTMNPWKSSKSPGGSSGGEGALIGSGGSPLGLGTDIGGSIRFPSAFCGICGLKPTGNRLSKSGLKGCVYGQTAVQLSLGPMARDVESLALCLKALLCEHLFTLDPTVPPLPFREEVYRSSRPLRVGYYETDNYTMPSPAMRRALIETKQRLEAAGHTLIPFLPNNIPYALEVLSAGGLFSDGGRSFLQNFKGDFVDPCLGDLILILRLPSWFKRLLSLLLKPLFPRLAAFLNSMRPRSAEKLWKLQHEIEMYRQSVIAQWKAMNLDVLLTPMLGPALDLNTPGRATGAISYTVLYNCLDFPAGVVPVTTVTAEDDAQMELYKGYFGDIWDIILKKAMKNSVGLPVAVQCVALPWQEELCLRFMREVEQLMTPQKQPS
In words: Inhibition of FAAH in rat brain microsomes using N-(2-hydroxyethyl)-4-pyren-1-ylbutanamide as substrate after 60 mins by fluorescence-based reversed phase HPLC analysis.

Data set [2] is described as follows: Metabolic stability in rat liver S9 fraction assessed as amount of parent compound remaining after 30 mins under aerobic conditions in presence of NADPH by reversed HPLC -UV detection analysis. Type of data set: ADME, subcellular. As to conditions: for Stability: s9, 0.5 h; for remaining at 0.5 h: liver S9 fraction, read-out: Stability.
Data set [3] can be described thus: Inhibition of pig platelet cytosolic phospholipase A2alpha using 1-stearoyl-2-arachidonoyl-sn-glycero-3-phosphocholine/1,2-dioleoyl-sn-glycerol as substrate after 60 mins by reversed phase HPLC-UV detection analysis. On the set-up: species or system Sus scrofa.
A short description of data set [4]: Thermodynamic aqueous solubility of the compound at pH 7.4 at 20 degC sonicated for 10 mins after 24 hrs UV-HPLC analysis. As to conditions: read-out: Therm_solubility. The data set is classed as physicochemical.
A short description of data set [5]: Ratio of IC50 for pig platelet cytosolic phospholipase A2alpha to IC50 for FAAH in rat brain microsomes.
A short description of data set [6]: Drug metabolism in rat liver S9 fraction assessed as hydroxylation product metabolite formation after 30 mins under aerobic conditions in presence of NADPH by reversed HPLC/MS analysis. The data set is classed as ADME, subcellular. The note with it: s9, 0.5 h.
A short description of data set [7]: Drug metabolism in rat liver S9 fraction assessed as alcohol derivative metabolite formation after 30 mins under aerobic conditions in presence of NADPH by reversed HPLC/MS analysis. The data set is classed as ADME, subcellular. The note with it: s9, 0.5 h.

Molecules are shown by their SMILES. Values after ≈ are worked out from the molar mass of the structure shown.

Turning to `O=C(COc1ccc(-c2ccc(F)cc2)cc1)Cn1nnc2ccccc21`, it took 0.012 µM to reach half-maximal inhibition in data set [1] (IC50). Besides, in data set [2], the Stability result is “Unstable”.

In the case of `O=C(COc1ccc(-c2cccc(F)c2)cc1)Cn1nnc2ccccc21`, the IC50 (usually the point on the concentration scale where inhibition reaches its midpoint) in data set [1] worked out at 0.014 µM. In addition, the Stability result in data set [2] is recorded as “Unstable”.

`O=C(COc1ccc(-c2cccc(Cl)c2)cc1)Cn1nnc2ccccc21` gave an IC50 in data set [1] of 0.011 µM. Also, the Stability result in data set [2] was “Unstable”.

Consider `O=C(COc1ccc(-c2ccccc2)cc1)Cn1cnnn1`, for which the results for the IC50 in data set [3] and in data set [1] were 4.9 µM and 0.043 µM, respectively. The solubility thermodynamic at 24 h in data set [4] worked out at 11 µg/mL (≈ 37.4 µM). For the same compound, the remaining at 0.5 h in data set [2] came out at 0%. In data set [5], the Ratio IC50 was in the range of 100 to 500.

`CCCCCCCCc1ccc(OCC(=O)Cn2ncc3cccnc32)cc1` returned an IC50 in data set [1] of 1.6 µM.

Compound `CC(Oc1ccc(-c2ccc(F)cc2)cc1)C(=O)Cn1nnc2ccccc21` (stereo unspecified) returned an IC50 in data set [1] of 0.012 µM. Further, the remaining at 0.5 h in data set [2] was determined as 29%.

`CCCCCCCCc1ccc(OCC(=O)Cn2nnc3cccnc32)cc1` showed an IC50 in data set [1] of 0.013 µM.

Take `CCCCCCCCc1ccc(OCC(=O)Cn2cnc3ccccc32)cc1`: it took 0.48 µM to reach half-maximal inhibition in data set [1] (IC50).

For `CCCCCCCCc1ccc(OCC(=O)Cn2ncc3ncccc32)cc1`, the half-maximal inhibitory concentration (IC50) in data set [1] came to 0.093 µM.

`CCCCCCCCc1ccc(OCC(=O)Cn2nnc3ccccc32)cc1`: the 50% inhibitory concentration (IC50) in data set [1] worked out at 0.015 µM.

Take `O=C(COc1ccc(-c2ccc(Cl)cc2)cc1)Cn1nnc2ccccc21`: in data set [1], half-maximal inhibition (IC50) required 0.021 µM. In data set [2], the Stability result is listed as “Unstable”.

As to `CC(Oc1ccc(-c2ccccc2)cc1)C(=O)Cn1nnc2ccccc21` (stereo unspecified), the IC50 in data set [3] stood at 6.8 µM; in data set [1], 0.013 µM. The solubility thermodynamic at 24 h in data set [4] was below 1 µg/mL. The remaining at 0.5 h in data set [2] came out at 23%. Further, the Ratio IC50 in data set [5] fell in the range of 100 to 500.

As to `CCC(Oc1ccc(-c2ccccc2)cc1)C(=O)Cn1nnc2ccccc21` (stereo unspecified), the Drug metabolism entry in data set [6] is recorded as “Metabolite_Notdetected”. The same compound yielded an IC50 in data set [1] of 1.8 µM. Besides, the remaining at 0.5 h in data set [2] was 51%.

With `CCCCCCCCc1ccc(OCC(=O)Cn2ccc3ncccc32)cc1`, the IC50 in data set [1] was above 10 µM.

Regarding `CC(Oc1ccc(-c2ccccc2)cc1)C(=O)Cn1cnnn1` (stereo unspecified), the IC50 in data set [3] is 6.9 µM; in data set [1] it was 0.019 µM. Also, in data set [4], the solubility thermodynamic at 24 h was 4 µg/mL (≈ 13 µM). For the same compound, in data set [2], the remaining at 0.5 h stood at 9%. The Ratio IC50 in data set [5] lay within 100 to 500.

In the case of `O=C(COc1ccc(-c2ccccc2)cc1)Cn1ncnn1`, the IC50 came out at 1.8 µM in data set [3] and 0.011 µM in data set [1]. The solubility thermodynamic at 24 h in data set [4] came to 10 µg/mL (≈ 34 µM). Further, the remaining at 0.5 h in data set [2] is 0%. The Ratio IC50 in data set [5] was in the range of 100 to 500.

For `O=C1NC(=O)C(c2ccccc2)(c2ccccc2)N1` [PHENYTOIN], the solubility thermodynamic at 24 h in data set [4] worked out at 18 µg/mL (≈ 71.4 µM).

On to `CC(C(=O)COc1ccc(-c2ccccc2)cc1)n1cnnn1` (stereo unspecified), for which the concentration for half-maximal inhibition (IC50) in data set [1] is above 10 µM. For the same compound, the remaining at 0.5 h in data set [2] was found to be 11%.

Take `CCCCCCCCc1ccc(OCC(=O)Cn2cnc3ncccc32)cc1`: the IC50 in data set [1] was found to be 0.62 µM.

In turn, `CCCCCCCCc1ccc(OCC(=O)Cn2nccn2)cc1` displayed an IC50 in data set [1] of 0.1 µM.

For `CCCCCCCCc1ccc(OCC(=O)Cn2ccnc2)cc1`, inhibition in data set [1] was half-maximal at 0.41 µM (IC50).

Compound `CC(C(=O)COc1ccc(-c2ccccc2)cc1)n1nnc2ccccc21` (stereo unspecified) returned an IC50 in data set [1] of 0.63 µM. Moreover, the remaining at 0.5 h in data set [2] is 21%.

In data set [1], `CCCCCCCCc1ccc(OCC(=O)Cn2nnc3ncccc32)cc1` gave an IC50 of 0.049 µM.

For `CCCCCCCCc1ccc(OCC(=O)Cn2cnc3cccnc32)cc1`, the IC50 in data set [1] was 0.41 µM.

`CCCCCCCCc1ccc(OCC(=O)Cn2cncn2)cc1` came in with a concentration for half-maximal inhibition (IC50) in data set [1] of 0.053 µM.

With `O=C(COc1ccc(-c2ccccc2)cc1)Cn1nnc2ccccc21`, the half-inhibitory concentration (IC50) in data set [3] was determined as 2.4 µM; in data set [1], 0.012 µM. For the same compound, in data set [4], the solubility thermodynamic at 24 h turned out to be 2 µg/mL (≈ 5.82 µM). In addition, the Drug metabolism entry in data set [7] is on record as “Metabolite_Detected”. The remaining at 0.5 h in data set [2] was 0%. In addition, the Ratio IC50 in data set [5] lay within 100 to 500.

Consider `CCCCCCCCCCOc1ccc(OCC(=O)COc2ccc(C(=O)O)cc2)cc1`, for which, in data set [3], 0.0065 µM corresponded to half-maximal inhibition (IC50).

Regarding `CC(Oc1ccc(-c2ccccc2)cc1)C(=O)Cn1ncnn1` (stereo unspecified), the results for the 50% inhibitory concentration (IC50) in data set [3] and in data set [1] were 3.3 µM and 0.009 µM, respectively. The solubility thermodynamic at 24 h in data set [4] came out at 2 µg/mL (≈ 6.49 µM). The remaining at 0.5 h in data set [2] is 0%. In data set [5], the Ratio IC50 lay in the range of 100 to 500.

On to `CCCCCCCCc1ccc(OCC(=O)Cn2cccn2)cc1`, for which 0.84 µM corresponded to half-maximal inhibition in data set [1] (IC50).

With `CC(C(=O)COc1ccc(-c2ccccc2)cc1)n1ncnn1` (stereo unspecified), the IC50 in data set [1] amounted to 6.3 µM. The remaining at 0.5 h in data set [2] amounted to 0%.

In data set [1], `CCCCCCCCc1ccc(OCC(=O)Cn2ncc3ccccc32)cc1` displayed a concentration for half-maximal inhibition (IC50) of 2.3 µM.

The values are drawn from ChEMBL document CHEMBL3872277, “1-Heteroarylpropan-2-ones as inhibitors of fatty acid amide hydrolase: Studies on structure-activity relationships and metabolic stability” (Bioorg Med Chem, 2017).
